The record followed here is US10604514B2, “6-(5-membered heteroaryl)isoquinolin-3-yl carboxamides and preparation and use thereof” (Samumed, LLC, priority 2017, dated 2020).

The test system of assay [1] is Wnt activity (Sp5-Luc reporter in SW480 colon carcinoma cells). As to the kind of experiment: Wnt activity screening assay (Sp5-Luc reporter gene assay). The assay is classed as cell-based, human. The gist of the method: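 Compounds at 10 points (1:3 steps, top 10 μM, 0.1% DMSO final) were incubated 36 to 48 h at 37° C with stable Sp5-Luc SW480 reporter cells in 1% FBS medium. Luciferase luminescence was then read and expressed relative to DMSO-only cells. Four-parameter variable-slope fitting yielded EC50 values.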
(Reporter assays use an easily measured gene product as a stand-in for the process of interest.)

Assay [2] concerns the target GSK3β kinase (Homo sapiens (Human), UniProt P49841). As to the kind of experiment: GSK3β kinase assay (Ser/Thr 09 peptide Z-lyte, FRET).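 Also: Coumarin/fluorescein emission ratio converted to percent phosphorylation against unphosphorylated (0%) and phosphorylated (100%) controls, 1 h compound incubation at room temperature, 11-point threefold dilutions from 10 µM, run in duplicate.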 It is filed as biochemical. As to conditions: method text calls the value IC50.
Protocol: Representative compounds were screened using the assay procedure for GSK30 kinase activity as described below.
Each compound is dissolved in DMSO as a 10 mM stock and used to prepare compound source plates. Serial dilution (1:3, 11-point dose-response curves from 10 M to 0.0003 μM) and compound transfer was performed using the ECHO 550 (Labcyte, Sunnyvale, Calif.) into 1536-well black-walled round bottom plates (Corning).
This is a non-radioactive assay using fluorescence resonance energy transfer (FRET) between coumarin and fluorescein to detect kinase activity which is represented as ratio of coumarin emission/fluorescein emission.
The mixture is allowed to incubate with the representative compounds for one hour at room temperature. All reactions were performed in duplicate. Unphosphorylated (“0% Control”) and phosphorylated (“100% control”) forms of Ser/Thr 18 serve as control reactions.
After incubation, diluted Development Buffer is added to the reaction and allowed to further incubate for one hour at room temperature.
The percent phosphorylation is then calculated using the following formula: [1−((Em ratio×F100%)−C100%)/((C0%−C100%)+(Em ratio×(F100%−F0%)))].
Dose-response curves are generated and inhibitory concentration (IC50) values are calculated using non-linear regression curve fit in the Dotmatics' Studies Software (Bishops Stortford, UK).
Assay [3] concerns Tau phosphorylation at Ser396 (pSer396), SH-SY5Y cells. Put plainly: Tau phosphorylation at Ser396 (pSer396) in SH-SY5Y cells, ELISA/western blot.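 Also: cell lysates probed for reduced Tau pSer396 via ELISA (colorimetric) or western blot (chemiluminescence), both with one shared pSer396 antibody, EC50 for lowering phosphorylation.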 As to conditions: Homo sapiens. It is filed as cell-based, human. (In an ELISA, binding on a coated surface is turned into a signal by an enzyme label.)
For assay [4], the system named is SW480 colon carcinoma cells. Put plainly: Cell viability assay (CellTiter-Glo) in SW480 cells.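 Also: SW480 cells stably carrying an Sp5-luciferase TCF/LEF reporter, luminescent ATP signal as viability measure, DMSO-treated cells as control.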 It is filed as cell-based, human.
For assay [5], the system named is LL29 cells (primary human fibroblasts derived from IPF patients), α-smooth muscle actin. As to the kind of experiment: Inhibition of fibrotic process: αSMA in TGF-β1-treated primary human fibroblasts from IPF patients (LL29 cells). It is filed as cell-based. As to conditions: Homo sapiens, Fibroblast; for EC50: 96 h, % αSMA-positive LL29 cells, TGF-β1 20 ng/mL, 4 days; for inhibition at 10 µM: read-out: percent inhibition at 10 μM. The gist of the method: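 Read-out is the percentage of αSMA-positive cells by high-content imaging, excluding SYTOX green-positive dead/apoptotic cells, normalized to TGF-β1-only wells on the same plate. LL29 cells were exposed for 4 days at 37 °C to 20 ng/mL TGF-β1 plus 11-point, 2-fold compound dilutions in 0.1% DMSO.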

Assay [6] relates to IL-6. As to the kind of experiment: IL-6 inhibition in LPS-stimulated human peripheral blood mononuclear cells (HTRF). Conditions: Homo sapiens, PBMC; for inhibition at 10 µM: read-out: percent value in parentheses below EC50 >10; for EC50: IL-6, LPS-stimulated huPBMCs, HTRF. It is filed as cell-based. The gist of the method: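 EC50 from a 4-parameter fit of DMSO-normalized HTRF (665/620 nm) IL-6 signal, duplicates. Compound was added to fresh human PBMCs in 1% FBS RPMI for 2 h (top 10 μM, 3-fold, 0.25% DMSO) before 22 h stimulation with LPS at 50 ng/mL, 37 °C.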

The target of assay [7] is DYRK1A kinase (Homo sapiens (Human), UniProt Q13627). As to the kind of experiment: DYRK1A kinase assay (Ser/Thr 18 peptide Z-lyte, FRET).
Setting [8] is: Homo sapiens; Sp5-Luc reporter, SW480 cells, 36 to 48 hours.
[9] abbreviates: SH-SY5Y cells, overnight (16-18 h), read-out: pSer396 Tau EC50.
Setting [10] is: Homo sapiens, 96 h; cell viability, SW480 cells, four days, CellTiter-Glo.
[11] abbreviates: DYRK1A kinase, method text calls the value IC50.
The mark [12] stands for this setting: Homo sapiens, SW480; read-out: percent inhibition at 10 μM.
Where [13] appears, read: Homo sapiens, SW480, read-out: percent inhibition at 10 μM.

Where two headings read alike, the source gives them in different places.

GSK3β kinase, sequence (P49841 whole entry): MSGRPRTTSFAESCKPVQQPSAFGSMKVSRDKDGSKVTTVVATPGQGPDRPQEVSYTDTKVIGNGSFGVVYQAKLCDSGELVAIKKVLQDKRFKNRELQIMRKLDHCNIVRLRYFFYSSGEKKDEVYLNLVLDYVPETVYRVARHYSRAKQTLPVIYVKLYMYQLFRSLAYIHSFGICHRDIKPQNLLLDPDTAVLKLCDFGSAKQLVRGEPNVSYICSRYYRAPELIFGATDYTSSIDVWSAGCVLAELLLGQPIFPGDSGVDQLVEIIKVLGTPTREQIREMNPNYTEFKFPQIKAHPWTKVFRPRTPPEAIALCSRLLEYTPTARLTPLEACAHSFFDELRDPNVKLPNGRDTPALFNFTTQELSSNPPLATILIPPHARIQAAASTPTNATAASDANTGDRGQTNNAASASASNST

In the case of `[2H]c1c([2H])c([2H])c(C(=O)Nc2cc3cc(-c4cnc(C)n4C)ccc3cn2)c(Cl)c1[2H]` [Compound 159, 2-Chloro-N-(6-(1,2-dimethyl-1H-imidazol-5-yl)isoquinolin-3-yl)benzamide-3,4,5,6-d4], the EC50 (commonly the concentration at which the effect is half-maximal) was 4200 nM in assay [1] (setting [8]); more than 10000 nM in assay [2]; more than 10 µM in assay [3] (setting [9]); 8000 nM in assay [4] (setting [10]); more than 10000 nM in assay [5]; more than 10000 nM in assay [6]. The response in assay [7] was half-maximal at 27 nM (EC50). In addition, the inhibition at 10 µM in assay [5] was 31.4%; in assay [6], 1.6%.

On to `Cc1nnc(-c2ccc3cnc(NC(=O)N4CCC(N)CC4)cc3c2)s1` [Compound 150, 4-Amino-N-(6-(5-methyl-1,3,4-thiadiazol-2-yl)isoquinolin-3-yl)piperidine-1-carboxamide], for which the EC50 in assay [1] (setting [8]) is 2190 nM; in assay [2] it was 23 nM; in assay [3] (setting [9]) it was 0.272 µM; in assay [4] (setting [10]) it was 3920 nM; in assay [5] it was more than 10000 nM; in assay [6], more than 10000 nM. The molecule further registered an EC50 in assay [7] (setting [11]) of 13 nM. Besides, the inhibition at 10 µM in assay [5] amounted to 43.7%; in assay [6], 5.7%.

Regarding `[2H]c1c([2H])c(C(=O)Nc2cc3cc(-c4cncn4C)ccc3cn2)c([2H])c([2H])c1Cl` [Compound 83, 4-Chloro-N-(6-(1-methyl-1H-imidazol-5-yl)isoquinolin-3-yl)benzamide-2,3,5,6-d4], in assay [1] (setting [12]), the inhibition at 10 µM came to 29.7%. Further, the EC50 in assay [1] (setting [8]) was more than 10000 nM; in assay [2], 874 nM; in assay [3] (setting [9]), more than 10 µM; in assay [4] (setting [10]), 305 nM; in assay [5], 483 nM; in assay [6] it was 1130 nM. The molecule also returned an EC50 in assay [7] of 2 nM.

In the case of `CC(C)CN1CCC(CC(=O)Nc2cc3cc(-c4cnn(C)c4)ccc3cn2)C1` (centres unmarked) [Compound 4, 2-(1-Isobutylpyrrolidin-3-yl)-N-(6-(1-methyl-1H-pyrazol-4-yl)isoquinolin-3-yl)acetamide], the EC50 was determined as 730 nM in assay [1] (setting [8]); 22 nM in assay [2]; 0.069 µM in assay [3] (setting [9]); 907 nM in assay [4] (setting [10]); 229 nM in assay [5]; 489 nM in assay [6]. In assay [7] (setting [11]), this molecule returned an EC50 of 4 nM.

For `Cn1cc(-c2cc(F)c3cnc(NC(=O)[C@H]4CC[C@@H](N(C)C)CC4)cc3c2)cn1` [Compound 96, cis-4-(Dimethylamino)-N-(8-fluoro-6-(1-methyl-1H-pyrazol-4-yl)isoquinolin-3-yl)cyclohexane-1-carboxamide], the inhibition at 10 µM in assay [1] (setting [12]) stood at 0%; in assay [4] (setting [12]) it was 2.3%; in assay [5] it was 36%; in assay [6] it was 3.6%. Besides, the EC50 in assay [1] (setting [8]) is more than 10000 nM; in assay [2] it was 5420 nM; in assay [3] (setting [9]), more than 10 µM; in assay [4] (setting [10]) it was more than 10000 nM; in assay [5] it was more than 10000 nM; in assay [6], more than 10000 nM. In assay [7] (setting [11]), this molecule returned an EC50 of 846 nM.

For the molecule `Cc1nnc(-c2ccc3cnc(NC(=O)N4CCN(C(C)C)CC4)cc3c2)s1` [Compound 146, 4-Isopropyl-N-(6-(5-methyl-1,3,4-thiadiazol-2-yl)isoquinolin-3-yl) piperazine-1-carboxamide], the EC50 was 3110 nM in assay [1] (setting [8]); 62 nM in assay [2]; 1 µM in assay [3] (setting [9]); 3840 nM in assay [4] (setting [10]); more than 10000 nM in assay [5]; more than 10000 nM in assay [6]. In assay [7] (setting [11]), this molecule displayed an EC50 of 22 nM. Further, the figures for the inhibition at 10 µM in assay [5] and in assay [6] were 35.1% and 2.1%, respectively.

Regarding `[2H]c1c([2H])c([2H])c(/C=C/C(=O)Nc2cc3cc(-c4cnc(C)n4C)ccc3cn2)c([2H])c1[2H]` [Compound 90, (E)-N-(6-(1,2-Dimethyl-1H-imidazol-5-yl)isoquinolin-3-yl)-3-(phenyl-2,3,4,5,6-d5)acrylamide], the half-maximal effective concentration (EC50) in assay [1] (setting [8]) stood at 159 nM; in assay [2], 388 nM; in assay [3] (setting [9]), 0.171 µM; in assay [4] (setting [10]) it was 312 nM; in assay [5], 299 nM; in assay [6], 606 nM. Also, the EC50 in assay [7] was 4 nM.

For the molecule `Cn1cc(-c2ccc3cnc(NC(=O)C4CCN(C(C)(C)C)CC4)cc3c2)cn1` [Compound 167, 1-(tert-Butyl)-N-(6-(1-methyl-1H-pyrazol-4-yl)isoquinolin-3-yl)piperidine-4-carboxamide], the EC50 in assay [1] (setting [8]) amounted to 2350 nM; in assay [2], 96 nM; in assay [3] (setting [9]), 0.288 µM; in assay [4] (setting [10]), 3340 nM; in assay [5], 293 nM; in assay [6] it was 1240 nM. Moreover, a half-maximal response in assay [7] (setting [11]) (EC50) required 7 nM.

Take `Cc1nnc(-c2ccc3cnc(NC(=O)[C@H]4CC[C@H](N5CCN(C)CC5)CC4)cc3c2)s1` [Compound 194, trans-N-(6-(5-methyl-1,3,4-thiadiazol-2-yl)isoquinolin-3-yl)-4-(4-methylpiperazin-1-yl)cyclohexane-1-carboxamide]: the EC50 in assay [1] (setting [8]) is 681 nM; in assay [2], 12 nM; in assay [3] (setting [9]), 0.218 µM; in assay [4] (setting [10]), 1260 nM; in assay [5] it was 328 nM; in assay [6], 3090 nM. The molecule also showed an EC50 in assay [7] (setting [11]) of 3 nM.

Turning to `CN[C@H]1CC[C@H](C(=O)Nc2cc3cc(-c4cnc(C)o4)ccc3cn2)CC1` [Compound 16, trans-4-(Methylamino)-N-(6-(2-methyloxazol-5-yl)isoquinolin-3-yl) cyclohexane-1-carboxamide], the EC50 came out at 1460 nM in assay [1] (setting [8]); 122 nM in assay [2]; 0.286 µM in assay [3] (setting [9]); 808 nM in assay [4] (setting [10]); 172 nM in assay [5]; 1040 nM in assay [6]. This molecule also had an EC50 in assay [7] (setting [11]) of 5 nM.

Consider `Cc1nnc(-c2ccc3cnc(NC(=O)N4CCC(NC(CF)CF)CC4)cc3c2)s1` [Compound 121, 4-((1,3-Difluoropropan-2-yl)amino)-N-(6-(5-methyl-1,3,4-thiadiazol-2-yl)isoquinolin-3-yl)piperidine-1-carboxamide], for which the EC50 in assay [1] (setting [8]) was 8130 nM; in assay [2] it was 82 nM; in assay [3] (setting [9]), 0.953 µM; in assay [4] (setting [10]), more than 10000 nM; in assay [5], more than 10000 nM; in assay [6], more than 10000 nM. For the same molecule, the response in assay [7] (setting [11]) was half-maximal at 35 nM (EC50). The results for the inhibition at 10 µM in assay [4] (setting [12]), in assay [5] and in assay [6] were 36.5%, 10.4% and 5.4%, respectively.

Regarding `Cc1nnc(-c2ccc3cnc(NC(=O)N4CCOCC4)cc3c2)s1` [Compound 36, N-(6-(5-Methyl-1,3,4-thiadiazol-2-yl)isoquinolin-3-yl)morpholine-4-carboxamide], the EC50 in assay [1] (setting [8]) is 3740 nM; in assay [2], 79 nM; in assay [3] (setting [9]), 0.843 µM; in assay [4] (setting [10]) it was 5700 nM; in assay [5] it was 5200 nM; in assay [6] it was more than 10000 nM. The midpoint of the response in assay [7] (setting [11]), the EC50, lay at 12 nM. Also, the inhibition at 10 µM in assay [6] came to 4%.

For the molecule `Cc1nnc(-c2ccc3cnc(NC(=O)N4[C@@H]5CC[C@H]4C[C@H](N)C5)cc3c2)s1` [Compound 151, (1R,5S)-3-exo-Amino-N-(6-(5-methyl-1,3,4-thiadiazol-2-yl)isoquinolin-3-yl)-8-azabicyclo[3.2.1]octane-8-carboxamide], the values for the inhibition at 10 µM in assay [1] (setting [13]), in assay [4] (setting [13]) and in assay [6] were 4.4%, 0% and 13.1%, respectively. The EC50 is more than 10000 nM in assay [1] (setting [8]); 103 nM in assay [2]; 2.6 µM in assay [3] (SH-SY5Y, read-out: pSer396 Tau EC50 (μM)); more than 10000 nM in assay [4] (setting [10]); 2690 nM in assay [5]; more than 10000 nM in assay [6]. In assay [7] (setting [11]), this molecule gave a 50% effective concentration (EC50) of 9 nM.

Consider `[2H]c1c([2H])c(C(=O)Nc2cc3cc(-c4cnc(C)n4C)ccc3cn2)c([2H])c([2H])c1Cl` [Compound 160, 4-Chloro-N-(6-(1,2-dimethyl-1H-imidazol-5-yl)isoquinolin-3-yl)benzamide-2,3,5,6-d4], for which the EC50 was 309 nM in assay [1] (setting [8]); 3030 nM in assay [2]; more than 10 µM in assay [3] (setting [9]); 415 nM in assay [4] (setting [10]); 1010 nM in assay [5]; 3300 nM in assay [6]. In assay [7], this molecule returned an EC50 of 4 nM.
